Source: PubChem BioAssay (NCI)
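Step 1: Grow cells in 96-well plates. Step 2: Expose to compound for 48 hours at 5 concentrations. Step 3: Interpolate endpoints linearly; if unreached, use highest concentration. Abbreviation: GI50, concentration required for 50% inhibition of growth. TGI marks complete inhibition of growth.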

Columns and labels:
Test in all cases: NCI tumour cell line growth inhibition, 48 h
786-0 renal = system: 786-0 renal
A549 NSCLC = system: A549 NSCLC
ACHN renal = system: ACHN renal
BT-549 breast = system: BT-549 breast
CAKI-1 renal = system: CAKI-1 renal
COLO 205 colon = system: COLO 205 colon
DU-145 prostate = system: DU-145 prostate
EKVX NSCLC = system: EKVX NSCLC
HCC-2998 colon = system: HCC-2998 colon
HCT-116 colon = system: HCT-116 colon
HCT-15 colon = system: HCT-15 colon
HL-60(TB) leukemia = system: HL-60(TB) leukemia
HOP-62 NSCLC = system: HOP-62 NSCLC
HOP-92 NSCLC = system: HOP-92 NSCLC
HS 578T breast = system: HS 578T breast
HT29 colon = system: HT29 colon
IGROV1 ovarian = system: IGROV1 ovarian
K-562 leukemia = system: K-562 leukemia
KM12 colon = system: KM12 colon
LOX IMVI melanoma = system: LOX IMVI melanoma
MALME-3M melanoma = system: MALME-3M melanoma
MCF7 breast = system: MCF7 breast
MDA-MB-231 breast = system: MDA-MB-231 breast
MDA-MB-435 = system: MDA-MB-435
MOLT-4 leukemia = system: MOLT-4 leukemia
NCI-H226 lung = system: NCI-H226 lung
NCI-H23 lung = system: NCI-H23 lung
NCI-H460 lung = system: NCI-H460 lung
NCI-H522 lung = system: NCI-H522 lung
OVCAR-4 ovarian = system: OVCAR-4 ovarian
OVCAR-5 ovarian = system: OVCAR-5 ovarian
OVCAR-8 ovarian = system: OVCAR-8 ovarian
PC-3 prostate = system: PC-3 prostate
RPMI-8226 leukemia = system: RPMI-8226 leukemia
RXF 393 renal = system: RXF 393 renal
SF-268 CNS = system: SF-268 CNS
SF-295 CNS = system: SF-295 CNS
SF-539 CNS = system: SF-539 CNS
SK-MEL-2 melanoma = system: SK-MEL-2 melanoma
SK-MEL-28 melanoma = system: SK-MEL-28 melanoma
SK-MEL-5 melanoma = system: SK-MEL-5 melanoma
SK-OV-3 ovarian = system: SK-OV-3 ovarian
SN12C renal = system: SN12C renal
SNB-19 CNS = system: SNB-19 CNS
SNB-75 CNS = system: SNB-75 CNS
SR leukemia = system: SR leukemia
SW-620 colon = system: SW-620 colon
T-47D breast = system: T-47D breast
TK-10 renal = system: TK-10 renal
U251 CNS = system: U251 CNS
UACC-257 melanoma = system: UACC-257 melanoma
UACC-62 melanoma = system: UACC-62 melanoma
UO-31 renal = system: UO-31 renal

COc1cccc2c1-c1ccccc1C2=O
GI50 (786-0 renal): 3.15 µM
TGI (786-0 renal): > 100 µM
GI50 (A549 NSCLC): 2.65 µM
TGI (A549 NSCLC): > 100 µM
GI50 (ACHN renal): 0.783 µM
TGI (ACHN renal): > 100 µM
GI50 (BT-549 breast): 1.17 µM
TGI (BT-549 breast): > 100 µM
GI50 (CAKI-1 renal): 0.543 µM
TGI (CAKI-1 renal): > 100 µM
GI50 (COLO 205 colon): 1.91 µM
TGI (COLO 205 colon): 4.62 µM
GI50 (DU-145 prostate): 2.9 µM
TGI (DU-145 prostate): > 100 µM
GI50 (EKVX NSCLC): 9.49 µM
TGI (EKVX NSCLC): > 100 µM
GI50 (HCC-2998 colon): 3.35 µM
TGI (HCC-2998 colon): 47.1 µM
GI50 (HCT-116 colon): 3.14 µM
TGI (HCT-116 colon): 17.4 µM
GI50 (HCT-15 colon): 2.71 µM
TGI (HCT-15 colon): > 100 µM
GI50 (HL-60(TB) leukemia): 2.19 µM
TGI (HL-60(TB) leukemia): 6.37 µM
GI50 (HOP-62 NSCLC): 1.65 µM
TGI (HOP-62 NSCLC): > 100 µM
GI50 (HOP-92 NSCLC): 4.6 µM
TGI (HOP-92 NSCLC): 85.2 µM
GI50 (HS 578T breast): 0.815 µM
TGI (HS 578T breast): > 100 µM
GI50 (HT29 colon): 3.03 µM
TGI (HT29 colon): 12.5 µM
GI50 (IGROV1 ovarian): 1.46 µM
TGI (IGROV1 ovarian): > 100 µM
GI50 (K-562 leukemia): 0.801 µM
TGI (K-562 leukemia): > 100 µM
GI50 (KM12 colon): 3.42 µM
TGI (KM12 colon): > 100 µM
GI50 (LOX IMVI melanoma): 2.24 µM
TGI (LOX IMVI melanoma): > 100 µM
GI50 (MALME-3M melanoma): 6.54 µM
TGI (MALME-3M melanoma): > 100 µM
GI50 (MCF7 breast): 1.14 µM
TGI (MCF7 breast): > 100 µM
GI50 (MDA-MB-231 breast): 3.25 µM
TGI (MDA-MB-231 breast): 48.3 µM
GI50 (MDA-MB-435): 0.225 µM
TGI (MDA-MB-435): 0.79 µM
GI50 (MOLT-4 leukemia): 4.25 µM
TGI (MOLT-4 leukemia): > 100 µM
GI50 (NCI-H226 lung): 1.19 µM
TGI (NCI-H226 lung): > 100 µM
GI50 (NCI-H23 lung): 4.2 µM
TGI (NCI-H23 lung): > 100 µM
GI50 (NCI-H460 lung): 0.628 µM
TGI (NCI-H460 lung): 11.5 µM
GI50 (NCI-H522 lung): 0.276 µM
TGI (NCI-H522 lung): 4.33 µM
GI50 (OVCAR-4 ovarian): 2.69 µM
TGI (OVCAR-4 ovarian): > 100 µM
GI50 (OVCAR-5 ovarian): 5.32 µM
TGI (OVCAR-5 ovarian): > 100 µM
GI50 (OVCAR-8 ovarian): 3.33 µM
TGI (OVCAR-8 ovarian): > 100 µM
GI50 (PC-3 prostate): 2.22 µM
TGI (PC-3 prostate): > 100 µM
GI50 (RPMI-8226 leukemia): 3.7 µM
TGI (RPMI-8226 leukemia): > 100 µM
GI50 (RXF 393 renal): 0.329 µM
TGI (RXF 393 renal): 49.2 µM
GI50 (SF-268 CNS): 3.17 µM
TGI (SF-268 CNS): > 100 µM
GI50 (SF-295 CNS): 0.352 µM
TGI (SF-295 CNS): > 100 µM
GI50 (SF-539 CNS): 1.31 µM
TGI (SF-539 CNS): 5.76 µM
GI50 (SK-MEL-2 melanoma): 2.49 µM
TGI (SK-MEL-2 melanoma): > 100 µM
GI50 (SK-MEL-28 melanoma): 3.85 µM
TGI (SK-MEL-28 melanoma): > 100 µM
GI50 (SK-MEL-5 melanoma): 2.31 µM
TGI (SK-MEL-5 melanoma): 13.5 µM
GI50 (SK-OV-3 ovarian): 1.03 µM
TGI (SK-OV-3 ovarian): 7.49 µM
GI50 (SN12C renal): 4.85 µM
TGI (SN12C renal): > 100 µM
GI50 (SNB-19 CNS): 2.52 µM
TGI (SNB-19 CNS): > 100 µM
GI50 (SNB-75 CNS): 0.431 µM
TGI (SNB-75 CNS): > 100 µM
GI50 (SR leukemia): 3.66 µM
TGI (SR leukemia): > 100 µM
GI50 (SW-620 colon): 2.09 µM
TGI (SW-620 colon): > 100 µM
GI50 (T-47D breast): 6.7 µM
TGI (T-47D breast): > 100 µM
GI50 (TK-10 renal): 9.8 µM
TGI (TK-10 renal): > 100 µM
GI50 (U251 CNS): 2.9 µM
TGI (U251 CNS): > 100 µM
GI50 (UACC-257 melanoma): > 100 µM
TGI (UACC-257 melanoma): > 100 µM
GI50 (UACC-62 melanoma): 0.467 µM
TGI (UACC-62 melanoma): > 100 µM
GI50 (UO-31 renal): 4.46 µM
TGI (UO-31 renal): > 100 µM
